Assay results as given in ChEMBL document CHEMBL2203088, “Design, synthesis and molecular simulation studies of dihydrostilbene derivatives as potent tyrosinase inhibitors” (Bioorg Med Chem Lett, 2012).
pIC50: −log10 of the molar value.

Target: T1, Tyrosinase (Agaricus bisporus, UniProt O42713)
T1 sequence (O42713 whole entry): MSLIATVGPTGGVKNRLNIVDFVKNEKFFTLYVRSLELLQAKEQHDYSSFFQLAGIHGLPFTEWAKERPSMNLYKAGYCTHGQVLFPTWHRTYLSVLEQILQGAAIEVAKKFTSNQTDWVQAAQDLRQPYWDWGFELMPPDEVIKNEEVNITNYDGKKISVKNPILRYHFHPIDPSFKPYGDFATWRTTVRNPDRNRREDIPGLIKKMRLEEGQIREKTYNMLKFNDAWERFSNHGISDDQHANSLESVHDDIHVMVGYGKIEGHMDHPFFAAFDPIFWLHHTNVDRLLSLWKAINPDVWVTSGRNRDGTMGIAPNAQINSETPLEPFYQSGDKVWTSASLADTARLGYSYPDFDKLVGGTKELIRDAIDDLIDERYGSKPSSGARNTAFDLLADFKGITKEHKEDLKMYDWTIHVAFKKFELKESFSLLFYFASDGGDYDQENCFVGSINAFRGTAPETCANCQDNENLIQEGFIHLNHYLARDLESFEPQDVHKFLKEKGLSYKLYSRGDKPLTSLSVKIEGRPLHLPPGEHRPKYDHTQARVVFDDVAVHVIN
Experiment: Inhibition of mushroom tyrosinase using L-DOPA as substrate after 10 mins

pIC50	Structure (SMILES)
4.30	Oc1ccc(CCc2ccc(F)cc2)c(O)c1
4.47	Oc1ccc(CCc2ccccc2Cl)c(O)c1
4.51	Oc1ccc(CCc2ccccc2)c(O)c1
5.07	Oc1ccc(CCc2ccc(O)cc2O)cc1
4.50	COc1ccc(CCc2ccc(O)cc2O)cc1
